# From patent US20130190314A1, “DERIVATIVES OF 6-CYCLOAMINO-2-THIENYL-3-(PYRIDIN-4-YL)IMIDAZO[1,2-b]-PYRIDAZINE AND 6-CYCLOAMINO-2-FURANYL-3-(PYRIDIN-4-YL)IMIDAZO[1,2-b]-PYRIDAZINE, PREPARATION AND THERAPEUTIC USE THEREOF” (priority 2008, published 2013)
# System: not given
# Test: not given
# Details: not given
row,Structure (SMILES),melting point [°C]
1,"CC(C)(O)CN1CCN(c2ccc3nc(-c4ccsc4)c(-c4ccncc4)n3n2)CC1 [Compound 19, 2-methyl-1-[4-(3-(pyridin-4-yl)-2-(thien-3-yl)imidazo[1,2-b]pyridazin-6-yl)piperazin-1-yl]propan-2-ol]",178 to 180
2,"c1csc(-c2nc3ccc(N4CCNCC4)nn3c2-c2ccncc2)c1 [Compound 1, 6-(piperazin-1-yl)-3-(pyridin-4-yl)-2-(thien-2-yl)imidazo[1,2-b]pyridazine]",217 to 220
3,"Cc1ccc(-c2nc3ccc(N4C[C@H]5CN(C)C[C@H]5C4)nn3c2-c2ccncc2)o1 [Compound 33, 2-(5-Methylfuran-2-yl)-6-[(cis)-5-methylhexahydropyrrolo[3,4-c]pyrrol-2(1H)-yl]-3-(pyridin-4-yl)imidazo[1,2-b]pyridazine]",178 to 181
4,"c1csc(-c2nc3ccc(N4C[C@H]5CNC[C@H]5C4)nn3c2-c2ccncc2)c1 [Compound 6, 6-[(cis)-hexahydropyrrolo[3,4-c]pyrrol-2(1H)-yl]-3-(pyridin-4-yl)-2-(thien-2-yl)imidazo[1,2-b]pyridazine]",179 to 183
5,"c1cc(-c2c(-c3ccsc3)nc3ccc(N4CCC5(CCCNC5)CC4)nn23)ccn1 [Compound 22, 9-[3-(pyridin-4-yl)-2-(thien-3-yl)imidazo[1,2-b]pyridazin-6-yl]-2,9-diazaspiro[5.5]undecane]",133 to 168
6,"C[C@@H]1CN(c2ccc3nc(-c4ccc(Cl)s4)c(-c4ccncc4)n3n2)C[C@H](C)N1 [Compound 13, 2-(5-chlorothien-2-yl)-6-[(cis)-3,5-dimethylpiperazin-1-yl]-3-(pyridin-4-yl)imidazo[1,2-b]pyridazine]",220 to 222
7,"Cc1ccc(-c2nc3ccc(N4CCN(CC(C)(C)O)CC4)nn3c2-c2ccncc2)o1 [Compound 29, 2-methyl-1-{4-[2-(5-methylfuran-2-yl)-3-pyridin-4-ylimidazo[1,2-b]pyridazin-6-yl]piperazin-1-yl}propan-2-ol]",147 to 149
8,"CC(C)(O)CN1CCN(c2ccc3nc(-c4ccoc4)c(-c4ccncc4)n3n2)CC1 [Compound 31, 1-[4-(2-furan-3-yl-3-pyridin-4-ylimidazo[1,2-b]pyridazin-6-yl)piperazin-1-yl]-2-methylpropan-2-ol]",139 to 149
9,"c1csc(-c2nc3ccc(N4CC5CCCNC5C4)nn3c2-c2ccncc2)c1 (stereo not drawn) [Compound 7, 6-(Octahydro-6H-pyrrolo[3,4-b]pyridin-6-yl)-3-(pyridin-4-yl)-2-(thien-2-yl)imidazo[1,2-b]pyridazine]",176 to 179
10,"CN1C[C@@H]2CN(c3ccc4nc(-c5ccc(Cl)s5)c(-c5ccncc5)n4n3)C[C@@H]2C1 [Compound 15, 2-(5-chlorothien-2-yl)-6-[(cis)-5-methylhexahydropyrrolo[3,4-c]pyrrol-2(1H)-yl]-3-(pyridin-4-yl)imidazo[1,2-b]pyridazine]",217 to 220
11,"c1cc(-c2c(-c3ccsc3)nc3ccc(N4CCC(N5CCCC5)CC4)nn23)ccn1 [Compound 23, 3-(pyridin-4-yl)-6-(4-pyrrolidin-1-ylpiperidin-1-yl)-2-(thien-3-yl)imidazo[1,2-b]pyridazine]",168 to 170
12,"CN1CCN(c2ccc3nc(-c4ccsc4)c(-c4ccncc4)n3n2)CC1 [Compound 18, 6-(4-methylpiperazin-1-yl)-3-(pyridin-4-yl)-2-(thien-3-yl)imidazo[1,2-b]pyridazine]",177 to 179
13,"Cc1ccc(-c2nc3ccc(N4CCN(CCO)CC4)nn3c2-c2ccncc2)o1 [Compound 28, 2-{4-[2-(5-methylfuran-2-yl)-3-pyridin-4-ylimidazo[1,2-b]pyridazin-6-yl]piperazin-1-yl}ethanol]",190 to 192
14,"c1csc(-c2nc3ccc(N4CCC5(CCCNC5)CC4)nn3c2-c2ccncc2)c1 [Compound 8, 9-(3-(pyridin-4-yl)-2-(thien-2-yl)imidazo[1,2-b]pyridazin-6-yl)-2,9-diazaspiro[5.5]undecane]",184 to 189

# System: Mper1-luc Rat-1 (P2C4) fibroblasts
# Test: Circadian cell assay: mPer1-promoter luciferase reporter, period prolongation
# Type: cell-based
# Details: effective concentration that induced a 1-hour prolongation of the circadian period
# Protocol: Mper1-luc Rat-1 (P2C4) fibroblast cultures were prepared by dividing the cultures every 3-4 days (approximately 10-20% of confluence) on 150 cm^2 degassed polystyrene tissue culture flasks (Falcon® #35-5001) and maintained in growth medium [EMEM (Cellgro #10-010-CV); 10% foetal bovine serum (FBS; Gibco #16000-044); and 50 I.U./ml of penicillin-streptomycin (Cellgro #30-001-CI)] at 37° C. and under 5% CO2.
# Cells obtained from Rat-1 fibroblast cultures at 30-50% of confluence as described above were co-transfected with vectors containing the selectable marker for zeocin resistance for a stable transfection and a luciferase reporter gene controlled by the mPer-1 promoter. After 24 to 48 hours, the cultures were divided on 96-well plates and maintained in growth medium supplemented with 50-100 μg/ml of zeocin (Invitrogen® #45-0430) for 10-14 days. The zeocin-resistant stable transfectants were evaluated for the expression of the reporter gene by adding 100 μM luciferin (Promega® #E1603®) to the growth medium and by assaying the luciferase activity on a TopCount® scintillation counter (Packard Model #C384V00). The Rat-1 cell clones expressing both zeocin resistance and luciferase activity controlled by mPer1 were serum-shock synchronized with 50% horse serum [HS (Gibco® #16050-122)] and the activity of the circadian reporter was evaluated. The P2C4 clone of Mper1-luc Rat-1 fibroblasts was selected to test the compound.
# Mper1-luc Rat-1 (P2C4) fibroblasts at 40-50% of confluence, obtained according to the protocol described above, were plated out onto 96-well opaque tissue culture plates (Perkin Elmer® #6005680). The cultures are maintained in growth medium supplemented with 100 μg/mL of zeocin (Invitrogen #45-0430) until they have reached 100% of confluence (48-72 h). The cultures were then synchronized with 100 μl of synchronization medium [EMEM (Cellgro #10-010-CV); 100 I.U./ml of penicillin-streptomycin (Cellgro #30-001-C1); HS at 50% (Gibco #16050-122)] for 2 hours at 37° C. and under 5% CO2. After synchronization, the cultures were rinsed with 100 μl of EMEM (Cellgro #10-010-CV) for 10 minutes at ambient temperature. After rinsing, the medium was replaced with 300 μl of CO2 independent medium [CO2I (Gibco #18045-088); 2 mM L-glutamine (Cellgro #25-005-C1); 100 I.U./ml of penicillin-streptomycin (Cellgro #30-001-C1); 100 μM luciferin (Promega #E 1603)]. […]
# The period analysis was performed either by determining the interval between the relative light emission minima over several days or by Fourier transform. […] The data were analysed by adjusting a hyperbolic curve to the data expressed as change of period (Y-axis) as a function of the concentration of the test compound (X-axis) in the XLfit™ software, and the CE Delta (t+1 h) was interpolated from this curve.
row,Structure (SMILES),CE Delta (t + 1 h) [nM]
1,CN1C[C@@H]2CN(c3ccc4nc(-c5ccoc5)c(-c5ccncc5)n4n3)C[C@@H]2C1 [Compound 34],17
2,"CN1CCN(c2ccc3nc(-c4ccsc4)c(-c4ccncc4)n3n2)CC1 [Compound 18, 6-(4-methylpiperazin-1-yl)-3-(pyridin-4-yl)-2-(thien-3-yl)imidazo[1,2-b]pyridazine]",74 to 83

# Biological target: T1, casein kinase 1 epsilon (CK1 epsilon) (Homo sapiens, UniProt P49674)
# T1 construct: Invitrogen Corporation (alternative)
# T1 sequence (P49674 whole entry): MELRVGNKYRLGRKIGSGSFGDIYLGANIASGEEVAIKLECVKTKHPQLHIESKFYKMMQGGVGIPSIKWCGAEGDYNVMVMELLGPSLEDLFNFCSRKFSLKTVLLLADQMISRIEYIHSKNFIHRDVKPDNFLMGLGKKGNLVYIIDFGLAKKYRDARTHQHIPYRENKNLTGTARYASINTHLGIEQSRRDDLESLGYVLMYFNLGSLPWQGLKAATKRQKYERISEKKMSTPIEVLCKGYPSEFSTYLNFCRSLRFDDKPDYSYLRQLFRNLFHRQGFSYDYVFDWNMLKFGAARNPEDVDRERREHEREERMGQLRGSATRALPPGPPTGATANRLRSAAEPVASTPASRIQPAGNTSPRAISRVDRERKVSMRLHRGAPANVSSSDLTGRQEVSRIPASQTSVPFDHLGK
# Test: Filter-plate assay of ATP-33P: inhibition of phosphorylation of casein by CK1 epsilon
# Type: biochemical
# Details: casein substrate, 10 μM ATP, 2 hours at ambient temperature
# Protocol: The capacity of the compounds of the invention to inhibit the phosphorylation of casein by casein kinase 1 epsilon and delta can be evaluated according to the procedure described in document US 2005/0131012.
# Filter-Plate Assay of ATP-^33P for the Screening of CK1 Epsilon Inhibitors:
# The effect of the compounds on inhibition of the phosphorylation of casein by the enzyme casein kinase 1 epsilon (CK1 epsilon) is measured using a casein assay with filtration of ATP-^33P in vitro.
# Casein kinase 1 epsilon (0.58 mg/ml) is obtained via fermentation and purification processes carried out according to methods well known to those skilled in the art, or may also be obtained from Invitrogen Corporation™ (human CK1 epsilon).
# The compounds are tested at five different concentrations so as to generate IC50 values, i.e. the concentration at which a compound is capable of inhibiting the enzymatic activity by 50%, or alternatively the % inhibition at a concentration of 10 micromolar.
# “U”-bottomed Falcon plates are prepared by placing 5 μl of solutions of the compounds according to the invention at concentrations of 10, 1, 0.1, 0.01 or 0.001 μM in various wells. The solutions of the compounds according to the invention at these various concentrations are prepared by diluting in a test buffer (50 mM Tris, pH 7.5, […], 2 mM DTT and 1 mM EGTA) a stock solution in DMSO at a concentration of 10 mM. Next, 5 μl of dephosphorylated casein are added to a final concentration of 0.2 μg/μl, 20 μl of CK1 epsilon are added to a final concentration of 3 ng/μl, and 20 μl of ATP-^33P are added to a final concentration of 0.02 μCi/μl mixed with cold ATP (10 μM final—approximately 2×10^6 CPM per well). The final total test volume per well is equal to 50 μl.
# The “U”-bottomed Falcon® test plate mentioned above is vortexed, and then incubated at ambient temperature for 2 hours. After 2 hours, the reaction is stopped by adding an ice-cold solution of 65 μl of cold ATP (2 mM) prepared in test buffer. 100 μl of the reaction mixture are then transferred from the “U”-bottomed Falcon®plate into Millipore MAPH filter plates, preimpregnated with 25 μl of ice-cold 100% TCA. […]
# The plates are left to dry overnight at ambient temperature. […] The radiation emitted by each well is then measured for 2 minutes in a Packard® Topcount NXT scintillation counter, in which the values of CPM/well are measured.
# The % inhibition of the capacity of the enzyme to phosphorylate the substrate (casein) is determined for each concentration of compound tested. These inhibition data expressed as percentages are used to calculate the IC50 value for each compound compared with the controls.
# The kinetic studies determined the KM value for ATP as being 21 μM in this test system.
row,Structure (SMILES),IC50 [nM]
1,CN1C[C@@H]2CN(c3ccc4nc(-c5ccoc5)c(-c5ccncc5)n4n3)C[C@@H]2C1 [Compound 34],15
2,"CN1CCN(c2ccc3nc(-c4ccsc4)c(-c4ccncc4)n3n2)CC1 [Compound 18, 6-(4-methylpiperazin-1-yl)-3-(pyridin-4-yl)-2-(thien-3-yl)imidazo[1,2-b]pyridazine]",25
